Data reported in article PMC9144936, “New Cu^+2 Complexes with N-Sulfonamide Ligands: Potential Antitumor, Antibacterial, and Antioxidant Agents” (Molecules, 2022).

Tests used:
[1] = tested on: Escherichia coli ATCC 10536; experiment: MIC, serial broth microdilution, E. coli; type: cell-based; details: 24 h, 37 °C
Method: The values of MIC, defined as the lowest concentration of antimicrobial complex that prevents visible growth of germs, are presented in Table S4 in the Supplementary Material. To quantify the copper complexes effectiveness as antibacterial agents, their minimum inhibitory concentrations (MICs) were determined using the serial broth microdilution method described by Quinn et al. and Markey et al.. The method was adapted for the purposes of the current study, according to the standards developed by the Clinical and Laboratory Standards Institute. The tests were performed on the same Gram-positive and Gram-negative reference microbial strains. Ten successive dilutions of the copper complexes solutions (1/2 to 1/1024) in nutrient broth (Merck KGaA, Darmstadt, Germany) were performed and then were placed in sterile microplates (one each for every copper complex). The microplates were incubated at 37 ± 2 °C for 24 h. Comparisons of the amount of bacterial growth in each well containing copper complexes solutions with the amount of growth in the growth control wells were performed and the maximal dilution for which the tested copper complexes inhibited bacterial growth was determined.

supercoiled pUC18 DNA = experiment: DNA cleavage (nuclease activity), agarose gel electrophoresis with H2O2/ascorbic acid; type: biochemical; details: 37 °C; for effect of sodium azide on the ability to destroy the nucleic acid molecule: complex 10 μM, ascorbic acid/H2O2, 1 h, NaN3 400 mM; for concentration at which the circular shape of DNA appears / concentration at which the linear shape of DNA appears: pUC18, cacodylate buffer 0.1 M pH 6.0, H2O2/ascorbic acid, 1 h
From the text: The activity of the complexes as chemical nucleases was studied using supercoiled pUC18 DNA in cacodylate buffer (0.1M, pH 6.0) in the presence of H2O2/ascorbic acid, with a 3.0-fold excess relative to the complex concentration. The efficiency of the complexes was compared with that of both copper sulfate and bis(o-phenanthroline) Cu^+2 complex under the same reaction conditions.
The nuclease activity of the complexes C1 and C2 was studied in the presence of certain inhibiting agents: DMSO, t-butyl alcohol, distamycin, sodium azide, 2,2,6,6-tetramethyl-4-piperidone, superoxide dismutase, and neocuproine, in an attempt to determine the ROS involved in the degradation process of the DNA molecule. We chose a concentration of 10 μM for the complexes and a concentration […] for the reducing agents ascorbic acid/H2O2. The incubation period of the samples was 1 h, at 37 °C. The resulting electropherograms are presented in Figure S8 in the Supplementary Material.
Reactions were performed by mixing 7 μL of cacodylate buffer 0.1 M, pH 6 (cacodylic acid/sodium cacodylate), 6 μL of complex solution (final concentrations: 5, 10, 15, and 20 μM), 1 μL of pUC18 DNA solution (0.25 μg/μL, 750 μM in base pairs), and 6 μL of activating agent solution (H2O2/ascorbic acid) in a 3-fold molar excess relative to the concentration of the complex. The resulting solutions were incubated for 1 h at 37 °C, after which a quench buffer solution (3 μL) consisting of bromophenol blue (0.25%), xylene cyanol (0.25%), and glycerol (30%) was added. The solution was then subjected to electrophoresis on 0.8% agarose gel in 0.5 × TBE buffer (0.045 M Tris, 0.045 M boric acid, and 1 mM EDTA) containing 5 μL/100 mL of a solution of ethidium bromide (10 mg/mL) at 100 V for 2 h. The bands were photographed on a capturing system (Gelprinter Plus TDI).
To test for the presence of reactive oxygen species (ROS) generated during strand scission and for possible complex–DNA interaction sites, various reactive oxygen intermediate scavengers and groove binders were added to the reaction mixtures. The scavengers used were 2,2,6,6-tetramethyl-4-piperidone (0.5 M), dimethylsulfoxide (DMSO) 14 M, t-butyl alcohol (10.5 M), sodium azide (NaN3) (400 mM), and superoxide dismutase (SOD) (15 units). In addition, a chelating agent of copper(I) and neocuproine (36 μM), along with the groove binder distamycin (80 μM) were also assayed. Samples were treated as described above.

[2] = tested on: Pseudomonas aeruginosa ATCC 27853; experiment: Disk diffusion method, P. aeruginosa; type: cell-based; details: complexes 5 µL of 1 mg/mL; 5 µg Norfloxacin; 24 h, 37 °C
From the text: The disk diffusion method was used to determine the antibacterial activity of the C1 and C2 copper complexes on four reference microbial strains, two Gram-positive (Staphylococcus aureus and Bacillus cerreus) and two Gram-negative (Escherichia coli and Pseudomonas aeruginosa) strains. The disk diffusion method was used to determine the antibacterial activity of the C1 and C2 copper complexes. The method was adapted for the purposes of the current study, according to the standards developed by the Clinical and Laboratory Standards Institute. Four reference microbial strains, two Gram-positive (Staphylococcus aureus ATCC […] and Bacillus cerreus ATCC 14579) and two Gram-negative (Escherichia coli ATCC 10536 and Pseudomonas aeruginosa ATCC 27853) strains, were used for in vitro susceptibility testing. These reference microbial strains were obtained from the American Type Culture Collection (ATCC, Manassas, VA, USA). As positive controls, Amoxicillin (Oxoid Ltd., Basingstoke, UK) and Norfloxacin (Sigma-Aldrich) were used. For each of the four species, an initial suspension of bacterial cultures was inoculated on nutrient agar plates (Merck KGaA, Darmstadt, Germany), incubated for 24 h at 37 ± 2 °C and resuspended in a physiological saline buffer to a […] concentration (on a 0.5 McFarland scale), and further inoculated on Muëller Hinton agar plates (Merck KGaA, Darmstadt, Germany). […] After inoculation, the medium surface was dried and 8 wells were radially drilled 1.5 cm from the outer edge, 3 cm apart. From aliquot samples of 1 mg/mL of each copper complex dissolved in DMSO and incorporated in sterile liquid medium, 5 μL was placed in each of the 8 wells and left for 30 min to diffuse into the agar plates. The plates were then incubated for 24 h at 37 ± 2 °C. Then, 25 μg Amoxicillin and 5 μg Norfloxacin served as a positive controls, while DMSO 0.75% was used as a negative control. Readings were conducted by measuring the diameter of the inhibition zone (Halo Zone Test, in mm). The germ sensitivity of the copper complexes was estimated by comparing the diameter of the inhibition area to that generated by the regular antibiotics with known inhibition values. […] All tests were triplicated, and the measured diameters of the inhibition zone were expressed (in mm) as mean ± standard deviation.

Substance | MIC [1] | effect of sodium azide on the ability to destroy the nucleic acid molecule (supercoiled pUC18 DNA) | concentration at which the circular shape of DNA appears (supercoiled pUC18 DNA) | concentration at which the linear shape of DNA appears (supercoiled pUC18 DNA) | Halo Zone Test (diameter of the inhibition zone) [2]
[Cu(N-(5-(4-Methylphenyl)-[1,3,4]-Thiadiazole-2-yl) Naphtalenesulfonamidate)2(H2O)3] [C1] | 0.231 µg/mL | little effect | 15 µM | 20 µM | 15 ± 0.32 mm
[Cu(N-(5-Ethyl--[1,3,4]-Thiadiazole-2-yl) Naphtalenesulfonamidate)2(py)2(H2O)] [C2] | 0.184 µg/mL | little effect | 10 µM | 15 µM | 19 ± 0.19 mm
